According to patent US7511041B2, “Fused azole-pyrimidine derivatives” (Bayer Pharmaceuticals Corporation, priority 2002, dated 2009):
Read-outs that look alike come from different tables or passages of the source.

How the values were obtained:
[1] = molecular target: T1, Recombinant human PI3Kγ (full length human PI3K p110γ) (Homo sapiens, UniProt P48736); experiment: Kinase assay of PI3Kγ (solid-phase lipid kinase assay); format: biochemical
T1 construct: full length human PI3K p110γ fused with a His6-tag at the C-terminus; His6 (C); purchased ALEXIS BIOCHEMICALS #201-055-C010; host or cells: S. frugiperda 9 insect cells
Description: [Determination of IC50 Values of Compounds in Kinase Assay of PI3Kγ]
Chemicals and Assay Materials
LABORATORIES (Toronto, Canada). Recombinant human PI3Kγ (full length human PI3K p110γ fused with a His6-tag at the C-terminus expressed in S. frugiperda 9 insect cells) was obtained from ALEXIS BIOCHEMICALS (#201-055-C010; San Diego, Calif.). […] BIOTECH (Buckinghamshire, UK) and ROCHE DIAGNOSTICS (Mannheim, Germany), respectively. Scintillation cocktails and MicroScint PS™ were purchased from PACKARD (Meriden, Conn.). Maxisorp™ plates were purchased from NALGE NUNC INTERNATIONAL K.K. (Tokyo, Japan). All other chemicals not further specified were from WAKO PURE CHEMICALS (Osaka, Japan).
Solid-Phase Lipid Kinase Assay
The plates were subsequently air-dried by incubation for at least 2 hours in a fume hood. The reaction was set up by mixing 25 μl/well of assay buffer 2× (100 mM MOPSO/NaOH, 0.2 M NaCl, pH 7.0, 8 mM MgCl2, 2 mg/ml BSA (fatty acid-free)) and 50 ng/well PI3Kγ in the lipid pre-coated plate and 10× test compounds were added in 2% DMSO. The reaction was started by adding 20 μl/well of ATP mix (final 10 μM ATP; 0.05 μCi/well [γ^33P]ATP). After incubation at RT for 2 hours, the reaction was terminated by adding 50 μl/well stop solution (50 mM EDTA, pH 8.0). The plate was then washed twice with Tris-buffered saline (TBS, pH 7.4). MicroScint PS™ (PACKARD) scintillation mix was added at 100 μl/well, and radioactivity was counted by using a TopCount™ (PACKARD) scintillation counter.
The inhibition percent at each concentration of compound was calculated, and IC50 values were determined from the inhibition of curve.

[2] = Table 1, isozyme not given, read-out: in vitro
[3] = in vitro PI3K-γ inhibitory activity, class symbols A-D, read-out: in vitro PI3K-gamma
[4] = in vitro PI3K-γ inhibitory activity, class symbols, read-out: in vitro PI3K-gamma

T1 sequence (P48736 whole entry, the tested form may be a part): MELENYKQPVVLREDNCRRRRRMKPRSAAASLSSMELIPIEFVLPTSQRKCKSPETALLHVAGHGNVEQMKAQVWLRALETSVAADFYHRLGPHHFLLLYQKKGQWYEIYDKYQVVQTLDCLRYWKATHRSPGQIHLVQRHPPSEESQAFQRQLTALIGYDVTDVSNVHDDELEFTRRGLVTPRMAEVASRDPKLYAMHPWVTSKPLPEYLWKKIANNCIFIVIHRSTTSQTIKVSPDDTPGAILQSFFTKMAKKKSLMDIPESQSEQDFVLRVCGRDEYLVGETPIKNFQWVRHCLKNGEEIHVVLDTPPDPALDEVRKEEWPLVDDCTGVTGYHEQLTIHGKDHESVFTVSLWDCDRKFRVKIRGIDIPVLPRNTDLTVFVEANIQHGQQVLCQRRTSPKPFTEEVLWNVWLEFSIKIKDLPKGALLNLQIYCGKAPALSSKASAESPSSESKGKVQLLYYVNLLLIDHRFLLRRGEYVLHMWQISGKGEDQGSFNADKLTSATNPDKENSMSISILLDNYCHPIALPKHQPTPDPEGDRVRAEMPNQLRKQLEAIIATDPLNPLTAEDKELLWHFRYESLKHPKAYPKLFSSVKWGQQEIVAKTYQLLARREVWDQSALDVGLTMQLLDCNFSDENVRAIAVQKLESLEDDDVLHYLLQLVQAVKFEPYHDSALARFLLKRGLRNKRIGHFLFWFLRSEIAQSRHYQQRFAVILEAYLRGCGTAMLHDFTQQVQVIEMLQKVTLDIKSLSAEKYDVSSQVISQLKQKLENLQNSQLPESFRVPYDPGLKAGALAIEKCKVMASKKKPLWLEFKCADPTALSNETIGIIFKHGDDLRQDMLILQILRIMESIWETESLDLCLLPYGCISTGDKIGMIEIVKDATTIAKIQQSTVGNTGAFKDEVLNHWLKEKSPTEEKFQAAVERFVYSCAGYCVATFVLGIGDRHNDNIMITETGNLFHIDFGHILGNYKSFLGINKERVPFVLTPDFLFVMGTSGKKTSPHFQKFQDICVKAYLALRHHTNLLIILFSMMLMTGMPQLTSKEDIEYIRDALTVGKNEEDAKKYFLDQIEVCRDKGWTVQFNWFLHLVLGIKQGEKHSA

SMILES: Cc1ccc2c(c1)C1=NCCN1C(/C=C(\O)c1cccnc1)=N2 [Example 1-131]
- melting point: 212 °C
- IC50 [1, 2]: 100 to 500 nM

SMILES: CN(C)c1cccc(C(=O)NC2=Nc3ccccc3C3=NCCN23)c1 [Example 2-258]
- melting point: 188 to 190 °C
- IC50 [1, 3]: > 2000 nM

SMILES: O=C(NC1=Nc2ccccc2C2=NCCN12)c1ccccc1F [Example 2-224]
- melting point: 202 to 204 °C
- IC50 [1, 3]: 500 to 2000 nM

SMILES: O=C(NC1=Nc2ccccc2C2=NCCN12)c1cccc([N+](=O)[O-])c1 [Example 2-252]
- melting point: 265 to 267 °C
- IC50 [1, 3]: > 2000 nM

SMILES: Cl.O=C(NC1=Nc2ccccc2C2=NCCN12)c1nccs1 [Example 2-188]
- melting point: 306 °C (dec.)
- IC50 [1, 4]: 100 to 500 nM

SMILES: O=C(NC1=Nc2cc(OCC(=O)N3CCOCC3)ccc2C2=NCCN12)c1cccnc1 [Example 2-207]
- melting point: 232 to 236 °C (dec.)
- IC50 [1, 3]: 100 to 500 nM

SMILES: O=C(NC1=Nc2ccccc2C2=NCCN12)c1ccc2[nH]nnc2c1.O=C(O)C(F)(F)F [Example 2-310]
- melting point: 252 °C (dec.)
- IC50 [1, 3]: 100 to 500 nM

SMILES: COc1c(C)ccc2c1N=C(/C=C(\O)c1ccc3[nH]cnc3c1)N1CCN=C21 [Example 1-34]
- melting point: > 285 °C
- IC50 [1, 2]: < 100 nM

SMILES: O=C(NC1=Nc2ccccc2C2=NCCN12)c1ccoc1 [Example 2-185]
- melting point: 217 to 218 °C
- IC50 [1, 4]: 100 to 500 nM

SMILES: CNc1ccc(/C(O)=C/C2=Nc3cc(OC)c(OC)cc3C3=NCCN23)cn1 [Example 1-52]
- melting point: 321 to 325 °C
- IC50 [1, 2]: 100 to 500 nM

SMILES: O=C(NC1=Nc2ccccc2C2=NCCN12)c1ccccc1 [Example 2-214]
- melting point: 201 to 203 °C (dec.)
- IC50 [1, 3]: 500 to 2000 nM

SMILES: COCOc1ccc2c(c1OC)N=C(/C=C(\O)c1cccnc1)N1CCN=C21 [Example 1-3, 2-[7-Methoxy-8-(methoxymethoxy)-2,3-dihydroimidazo[1,2-c]quinazolin-5-yl]-1-pyridin-3-ylethylenol]
- melting point: 215 to 216 °C
- IC50 ([1]; activity class of IC50, read-out: In vitro PI3K-γ inhibitory activity): 100 to 500 nM

SMILES: COc1ccc2c(c1OC)N=C(/C=C(\O)c1cccnc1)N1CCN=C21 [Example 1-10]
- melting point: 269 to 270 °C
- IC50 [1, 2]: < 100 nM

SMILES: C[C@H]1CN2C(NC(=O)c3cccnc3)=Nc3ccccc3C2=N1.Cl [Example 2-363]
- melting point: 204 °C (dec.)
- IC50 [1, 3]: > 2000 nM

SMILES: Nc1cncc(C(=O)NC2=Nc3ccccc3C3=NCCN23)c1 [Example 2-144]
- melting point: 263 to 266 °C
- IC50 [1, 4]: < 100 nM

SMILES: O=C(NC1=Nc2ccccc2C2=NCCN12)c1ccc(Cl)s1 [Example 2-301]
- melting point: 198 °C (dec.)
- IC50 [1, 3]: > 2000 nM

SMILES: Cc1ncccc1C(=O)NC1=Nc2cc(Br)ccc2C2=NCCN12.Cl [Example 2-43]
- melting point: 252 °C (dec.)
- IC50 [1, 4]: 100 to 500 nM

SMILES: Nc1cncc(C(=O)NC2=Nc3ccccc3C3=NCCN23)c1.O=C(O)C(F)(F)F [Example 2-145]
- melting point: 220 °C (dec.)
- IC50 [1, 4]: 100 to 500 nM

SMILES: COc1cc2c(cc1OC)C1=NCCN1C(NC(=O)c1ccc3[nH]cnc3c1)=N2 [Example 2-60]
- melting point: 246 °C
- IC50 [1, 4]: < 100 nM

SMILES: COc1c(C)ccc2c1N=C(/C=C(\O)c1ccc(NC(C)=O)nc1)N1CCN=C21.Cl [Example 1-33]
- melting point: 273 °C
- IC50 [1, 2]: < 100 nM

SMILES: COc1cc2c(cc1OC)C1=NCCN1C(/C=C(\O)c1ccc(NC(C)=O)nc1)=N2.Cl [Example 1-51]
- melting point: 275 to 280 °C
- IC50 [1, 2]: 100 to 500 nM

SMILES: COC(=O)CCCOc1c(OC)ccc2c1N=C(/C=C(\O)c1cccnc1)N1CCN=C21.Cl [Example 1-199]
- melting point: 178 to 179 °C
- IC50 [1, 2]: < 100 nM

SMILES: O=C(NC1=Nc2ccccc2C2=NCCN12)c1ccc(-n2ccnc2)cc1 [Example 2-268]
- melting point: 267 °C (dec.)
- IC50 [1, 3]: > 2000 nM

SMILES: CC(C)(C)C(=O)NC1=Nc2ccccc2C2=NCCN12 [Example 2-331]
- melting point: 135 to 136 °C
- IC50 [1, 3]: > 2000 nM

SMILES: O=C(NC1=Nc2ccccc2C2=NCCN12)c1ccc(C(F)(F)F)nc1 [Example 2-280]
- melting point: 219 to 220 °C
- IC50 [1, 3]: > 2000 nM

SMILES: Cn1cccc1C(=O)NC1=Nc2ccccc2C2=NCCN12 [Example 2-296]
- melting point: 128 to 129 °C
- IC50 [1, 3]: 500 to 2000 nM

SMILES: CC(=O)Nc1ccc(/C(O)=C/C2=Nc3c(ccc(C)c3OCCN3CCOCC3)C3=NCCN23)cn1.Cl [Example 1-41]
- melting point: 271 °C
- IC50 [1, 2]: < 100 nM

SMILES: COc1c(OCC(N)=O)ccc2c1N=C(/C=C(\O)c1cccnc1)N1CCN=C21 [Example 1-23]
- melting point: 297 to 298 °C
- IC50 [1, 2]: < 100 nM

SMILES: Nc1cccc(C(=O)NC2=Nc3ccccc3C3=NCCN23)c1.O=C(O)C(F)(F)F [Example 2-162]
- melting point: 191 °C (dec.)
- IC50 [1, 4]: 100 to 500 nM

SMILES: O=[N+]([O-])c1ccc2c(c1)C1=NCCN1C(/C=C(\O)c1ccccc1)=N2 [Example 1-191]
- melting point: 259 to 262 °C
- IC50 [1, 2]: > 2000 nM

SMILES: Cl.O=C(NC1=Nc2ccc(F)cc2C2=NCCN12)c1ccc2[nH]cnc2c1 [Example 2-83]
- melting point: > 300 °C
- IC50 [1, 4]: 100 to 500 nM

SMILES: COc1cc2c(cc1OC)C1=NCCN1C(NC(=O)c1cn[nH]c1)=N2.Cl [Example 2-63]
- melting point: 270 °C (dec.)
- IC50 [1, 4]: 100 to 500 nM

SMILES: COc1cccc2c1N=C(NC(=O)c1cnccc1C)N1CCN=C21.Cl [Example 2-120]
- melting point: 220 °C (dec.)
- IC50 [1, 4]: < 100 nM

SMILES: CC(=O)Nc1ccc(/C(O)=C/C2=Nc3ccccc3C3=NCCN23)cn1.Cl [Example 1-138]
- melting point: 327 °C
- IC50 [1, 2]: < 100 nM

SMILES: Cc1cccc2c1N=C(NC(=O)c1ccc3[nH]cnc3c1)N1CCN=C21 [Example 2-109]
- melting point: > 290 °C
- IC50 [1, 4]: < 100 nM

SMILES: Cl.O=C(NC1=Nc2c(cccc2C(F)(F)F)C2=NCCN12)c1cccnc1 [Example 2-111]
- melting point: 263 °C
- IC50 [1, 4]: < 100 nM

SMILES: Cl.O=C(NC1=Nc2ccccc2C2=NCCN12)c1cccnc1O [Example 2-284]
- melting point: 346 °C (dec.)
- IC50 [1, 3]: > 2000 nM

SMILES: CC(=O)Nc1ccc(/C(O)=C/C2=Nc3c(C)cc(Br)cc3C3=NCCN23)cn1.Cl [Example 1-44]
- melting point: > 290 °C
- IC50 [1, 2]: 100 to 500 nM

SMILES: CSc1ccc(C(=O)NC2=Nc3ccccc3C3=NCCN23)cc1 [Example 2-243]
- melting point: 169 to 170 °C
- IC50 [1, 3]: > 2000 nM

SMILES: Cc1nc(C)c(C(=O)NC2=Nc3cc(N4CCOCC4)ccc3C3=NCCN23)s1 [Example 2-16]
- melting point: 233 °C (dec.)
- IC50 [1, 4]: 100 to 500 nM

SMILES: CCn1nc(C)cc1C(=O)NC1=Nc2ccccc2C2=NCCN12 [Example 2-191]
- melting point: 207 to 208 °C
- IC50 [1, 4]: 100 to 500 nM

SMILES: Cl.O=C(NC1=Nc2cc(O)ccc2C2=NCCN12)c1cccnc1 [Example 2-195]
- melting point: 270 to 274 °C (dec.)
- IC50 [1, 4]: 100 to 500 nM

SMILES: CC(C)CC(=O)NC1=Nc2ccccc2C2=NCCN12 [Example 2-329]
- melting point: 154 °C (dec.)
- IC50 [1, 3]: > 2000 nM

SMILES: Cc1nc(C)c(C(=O)NC2=Nc3cc(N4CCOCC4)ccc3C3=NCCN23)s1.Cl [Example 2-17]
- melting point: 255 °C (dec.)
- IC50 [1, 4]: < 100 nM

SMILES: Cc1ccc(C(=O)NC2=Nc3ccccc3C3=NCCN23)cn1 [Example 2-147]
- melting point: 195 to 196 °C
- IC50 [1, 4]: < 100 nM

SMILES: CN(C=O)c1ccc(C(=O)NC2=Nc3ccccc3C3=NCCN23)cc1 [Example 2-263]
- melting point: 208 to 210 °C
- IC50 [1, 3]: > 2000 nM

SMILES: Cc1ccncc1C(=O)NC1=Nc2ccccc2C2=NCCN12 [Example 2-136]
- melting point: 194 to 195 °C
- IC50 [1, 4]: 100 to 500 nM

SMILES: Cc1nc2cc(C(=O)NC3=Nc4ccccc4C4=NCCN34)ccc2[nH]1.Cl [Example 2-308]
- melting point: 344 °C (dec.)
- IC50 [1, 3]: 100 to 500 nM

SMILES: OCCCOc1cccc2c1N=C(/C=C(\O)c1cccnc1)N1CCN=C21 [Example 1-92]
- melting point: 203 to 205 °C
- IC50 [1, 2]: < 100 nM

SMILES: Cl.O=C(NC1=Nc2cc(C(F)(F)F)ccc2C2=NCCN12)c1cccs1 [Example 2-350]
- melting point: 292 °C
- IC50 [1, 3]: 500 to 2000 nM

SMILES: Cl.O=C1NCC(COc2ccc3c(c2)N=C(NC(=O)c2cccnc2)N2CCN=C32)O1 (stereo not drawn) [Example 2-204]
- melting point: 265 to 269 °C (dec.)
- IC50 [1, 3]: 100 to 500 nM

SMILES: O/C(=C\C1=Nc2c(CN3CCOCC3)cccc2C2=NCCN12)c1cccnc1 [Example 1-82]
- melting point: 198 to 202 °C (dec.)
- IC50 [1, 2]: 100 to 500 nM

SMILES: O=C(NC1=Nc2cc(OCCOCCO)ccc2C2=NCCN12)c1cccnc1 [Example 2-201]
- melting point: 181 °C
- IC50 [1, 4]: 100 to 500 nM

SMILES: O=C(NC1=Nc2ccccc2C2=NCCN12)c1cccnc1.O=C(O)C(F)(F)F [Example 2-130]
- melting point: 237 to 239 °C
- IC50 [1, 4]: < 100 nM
